In patent US8076286B2, “Antimicrobial peptides and use thereof” (priority 2006, dated 2011):
Ends that are not written are not given here.

Tests used:
Erythrocytes = assay: Hemolysis assay; format: cell-based; conditions: % of Triton X-100 induced hemolysis; 1 h at 37° C.; peptides 3-60 μM, concentration for table not stated
Experimental: EDTA-blood was centrifuged at 800 g for 10 min, whereafter plasma and buffy coat were removed. The erythrocytes were washed three times and resuspended in 5% PBS, pH 7.4. The cells were then incubated with end-over-end rotation for 1 h at 37° C. in the presence of peptides (3-60 μM). 2% Triton X-100 (Sigma-Aldrich) served as positive control. The samples were then centrifuged at 800 g for 10 min. The absorbance of hemoglobin release was measured at λ 540 nm and is in the plot expressed as % of TritonX-100 induced hemolysis (FIG. 2).

E.coli ATCC 25922 = assay: Radial diffusion assay (RDA), E. coli; format: cell-based, Escherichia coli; conditions: zone of bacterial clearance in RDA; unit mm only in FIG. 1 legend, not in Table 2A
Experimental: (§1) Escherichia coli ATCC25922, Pseudomonas aeruginosa ATCC27853, Staphylococcus aureus ATCC29213, Bacillus subtilis ATCC6633 bacterial isolates, and the fungal isolate Candida albicans ATCC90028, were obtained from the Department of Bacteriology, Lund University Hospital.
(§2) Radial diffusion assays (RDA) were performed essentially as described earlier (Lehrer, R. I., Rosenman, M., Harwig, S. S., Jackson, R. & Eisenhauer, P. (1991) Ultrasensitive assays for endogenous antimicrobial polypeptides, J Immunol Methods. 137, 167-73.).
(§3) Briefly, bacteria (E. coli, P. aeruginosa, S. aureus, B. subtilis) or fungi (C. albicans) were grown to mid-logarithmic phase in 10 ml of full-strength (3% w/v) trypticase soy broth (TSB) (Becton-Dickinson, Cockeysville, Md.). The microorganisms were washed once with 10 mM Tris, pH 7.4. 4×10^6 bacterial cfu or 1×10^5 fungal cfu was added to 5 ml of the underlay agarose gel, consisting of 0.03% (w/v) TSB, 1% (w/v) low-electroendoosmosistype (Low-EEO) agarose (Sigma, St Louise Mo.) and a final concentration of 0.02% (v/v) Tween 20 (Sigma). The underlay was poured into a Ø85 mm petri dish. After agarose solidified, 4 mm-diameter wells were punched and 6 μl of test sample was added to each well. Plates were incubated at 37° C. for 3 hours to allow diffusion of the peptides. […]

S.aureus ATCC 29213 = assay: Radial diffusion assay (RDA), S. aureus; format: cell-based, Staphylococcus aureus; conditions: zone of bacterial clearance in RDA; unit mm only in FIG. 1 legend, not in Table 2A
Experimental: as §1, §2, §3

[1] = Liposome leakage assay (carboxyfluorescein), PC liposomes; format: biochemical; conditions: dioleoylphosphatidylcholine 60 mol %/cholesterol 40 mol % liposomes, scale 100% = Triton X100 release, unit not in table; for CF leakage PC + NaCl: 10 mM Tris pH 7.4, with 150 mM NaCl; for CF leakage PC − NaCl: 10 mM Tris pH 7.4, without NaCl
Experimental: (§4) Dry lipid films were prepared by dissolving either dioleoylphosphatidylcholine (Avanti Polar Lipids, Alabaster, Ala.) (60 mol %) and cholesterol (Sigma, St Louis, Mo.) (40 mol %), or dioleoylphosphatidylcholine (30 mol %), dioleoylphosphatidic acid (Avanti Polar Lipids, Alabaster, Ala.) (30 mol %) and cholesterol (40 mol %) in chloroform, and then removing the solvent by evaporation under vacuum overnight. Subsequently, buffer solution containing 10 mM Tris, pH 7.4, either with or without additional 150 mM NaCl, was added together with 0.1 M carboxyfluorescein (CF) (Sigma, St Louis, Mo.). After hydration, the lipid mixture was subjected to eight freeze-thaw cycles consisting of freezing in liquid nitrogen and heating to 60° C. Unilamellar liposomes with a diameter of about 130 nm (as found with cryo-TEM; results not shown) were generated by multiple extrusions through polycarbonate filters (pore size 100 nm) mounted in a LipoFast miniextruder (Avestin, Ottawa, Canada). Untrapped carboxyfluorescein was then removed by filtration through two subsequent Sephadex G-50 columns with the relevant Tris buffer as eluent. Both extrusion and filtration was performed at 22° C. In the liposome leakage assay, the well known self-quenching of CF was used. Thus, at 100 mM CF is self-quenched, and the recorded fluorescence intensity from liposomes with entrapped CF is low. […] The CF release was determined by monitoring the emitted fluorescence at 520 nm from a liposome dispersion, ([…] in 10 mM Tris pH 7.4). An absolute leakage scale is obtained by disrupting the liposomes at the end of the experiment through addition of 0.8 mM Triton X100 (Sigma, St Louis, Mo.), thereby causing 100% release and dequenching of CF. A SPEX-fluorolog 1650 0.22-m double spectrometer (SPEX Industries, Edison, N.J.) was used for the liposome leakage assay (see Table 3, FIG. 3).

[2] = Liposome leakage assay (carboxyfluorescein), PA liposomes; format: biochemical; conditions: dioleoylphosphatidylcholine 30/dioleoylphosphatidic acid 30/cholesterol 40 mol % liposomes, unit not in table; for CF leakage PA + NaCl: 10 mM Tris pH 7.4, with 150 mM NaCl; for CF leakage PA − NaCl: 10 mM Tris pH 7.4, without NaCl
Experimental: as §4

[3] = CD-spectroscopy, helical content; format: physicochemical; conditions: 10 mM Tris, pH 7.4, 37° C., peptide 10 μM; for Helical content, PA: PA liposome dispersion; for Helical content, PA / Helical content, PC: lipid 100 μM; for Helical content, PC: PC liposome dispersion; for Helical content, Buffer: buffer only
Experimental: The CD spectra of the peptides in solution were measured on a Jasco J-810 Spectropolarimeter (Jasco, U.K.). The measurements were performed at 37° C. in a 10 mm quartz cuvet under stirring and the peptide concentration was 10 μM. The effect of on peptide secondary structure of liposomes at a lipid concentration of 100 μM was monitored in the range 200-250 nm. The only peptide conformations observed under the conditions investigated were α-helix and random coil. The fraction of the peptide in α-helical conformation, Xα, is calculated from Xα=(A−Ac)/(Aα−Ac) (1)
where A is the recorded CD signal at 225 nm, and Aα and Ac are the CD signal at 225 nm for a reference peptide in 100% α-helix and 100% random coil conformation, respectively. 100% α-helix and 100% random coil references were obtained from 0.133 mM (monomer concentration) poly-L-lysine in 0.1 M NaOH and 0.1 M HCl, respectively. To account for the instrumental differences between measurements the background value (detected at 250 nm, where no peptide signal is present) was subtracted. Signals from the bulk solution were also corrected for (see Table 4).

[4] = Antimicrobial activity stated in text, microorganism not specified; format: cell-based; conditions: statement in words, no organism or method given

CC[C@H](C)[C@H](NC(=O)[C@H](CCCCN)NC(=O)[C@H](CCC(=O)O)NC(=O)[C@H](CCCCN)NC(=O)[C@H](CO)NC(=O)[C@H](CCCCN)NC(=O)[C@H](CCCNC(=N)N)NC(=O)[C@H](Cc1ccccc1)NC(=O)[C@H](Cc1ccccc1)NC(=O)[C@H](CC(=O)O)NC(=O)CNC(=O)[C@H](CC(C)C)NC(=O)[C@@H](N)CC(C)C)C(=O)NCC(=O)N[C@@H](CCCCN)C(=O)N[C@@H](CCC(=O)O)C(=O)N[C@@H](Cc1ccccc1)C(=O)N[C@@H](CCCCN)C(=O)N[C@@H](CCCNC(=N)N)C(=O)N[C@H](C(=O)N[C@H](C(=O)N[C@@H](CCC(N)=O)C(=O)N[C@@H](CCCNC(=N)N)C(=O)N[C@H](C(=O)N[C@@H](CCCCN)C(=O)N[C@@H](CC(=O)O)C(=O)N[C@@H](Cc1ccccc1)C(=O)N[C@@H](CC(C)C)C(=O)N[C@@H](CCCNC(=N)N)C(=O)N[C@@H](CC(N)=O)C(=O)N[C@@H](CC(C)C)C(=O)N[C@H](C(=O)N1CCC[C@H]1C(=O)N[C@@H](CCCNC(=N)N)C(=O)N[C@H](C(=O)N[C@@H](CCC(=O)O)C(=O)N[C@@H](CO)C(=O)O)[C@@H](C)O)C(C)C)[C@@H](C)CC)C(C)C)[C@@H](C)CC [LL-37]
Erythrocytes Hemolysis (%) Mean (Erythrocytes): 16.43%

CC(C)C[C@H](NC(=O)[C@H](Cc1c[nH]c2ccccc12)NC(=O)[C@H](CCCCN)NC(=O)[C@H](CCCCN)NC(=O)[C@H](CC(C)C)NC(=O)[C@H](CCCNC(=N)N)NC(=O)[C@H](Cc1ccccc1)NC(=O)[C@@H](N)CC(C)C)C(=O)N[C@@H](CCC(N)=O)C(=O)N[C@@H](CCCCN)C(=O)N[C@H](C(=O)N[C@H](C(=O)N[C@@H](CCCCN)C(=O)N[C@@H](CCC(N)=O)C(=O)N[C@@H](Cc1ccccc1)C(=O)NCC(=O)N[C@@H](CCC(=O)O)C(=O)O)[C@@H](C)O)C(C)C [SEQ ID NO:34, LFRIKKWLQKVTKQFGE]
Bacteria E.coli ATCC 25922 Mean (E.coli ATCC 25922): 6.65 mm
Bacteria S.aureus ATCC 29213 Mean (S.aureus ATCC 29213): 4.75 mm

CQKRYRGHKITHKMIC (listed as Homo sapiens) [CQK16, FA11_HUMAN aa 545-560]
CF leakage PC + NaCl [1]: 14 ± 4%
CF leakage PC − NaCl [1]: 64 ± 3%
CF leakage PA + NaCl [2]: 15 ± 2%
CF leakage PA − NaCl [2]: 18 ± 5%
Helical content, PA [3]: 8 ± 2%
Helical content, PC [3]: 10 ± 2%
Helical content, Buffer [3]: 10 ± 2%

GKYGIYTKVSRYVNWIKEKTKLT (listed as Homo sapiens) [GKY23, FA9_HUMAN aa 439-461]
CF leakage PC + NaCl [1]: 19 ± 1%
CF leakage PC − NaCl [1]: 86 ± 7%
CF leakage PA + NaCl [2]: 30 ± 5%
CF leakage PA − NaCl [2]: 86 ± 4%
Helical content, PA [3]: 29 ± 2%
Helical content, PC [3]: 21 ± 2%
Helical content, Buffer [3]: 7 ± 2%

LFRLKKWIRKVTRLFG [SEQ ID NO:9, LFRLKKWIRKVTRLFG]
Bacteria E.coli ATCC 25922 Mean (E.coli ATCC 25922): 11.03 mm
Bacteria S.aureus ATCC 29213 Mean (S.aureus ATCC 29213): 8.59 mm
antimicrobial effect [4]: displayed antimicrobial activity

NWRENLDRDIALMKLKKP (listed as Homo sapiens) [NVR18]
CF leakage PC + NaCl [1]: 0 ± 1%
CF leakage PC − NaCl [1]: 4 ± 1%
CF leakage PA + NaCl [2]: 0 ± 1%
CF leakage PA − NaCl [2]: 2 ± 1%

SEKTLRKWLKMFKKRQLELY (listed as Homo sapiens) [SEK20]
CF leakage PC + NaCl [1]: 17 ± 5%
CF leakage PC − NaCl [1]: 98 ± 2%
CF leakage PA + NaCl [2]: 16 ± 1%
CF leakage PA − NaCl [2]: 64 ± 2%
Helical content, PA [3]: 38 ± 4%
Helical content, PC [3]: 34 ± 4%
Helical content, Buffer [3]: 14 ± 2%
